Test results: US11066384B2, “Crystalline forms of ARN-509, preparation method and use thereof” (Crystal Pharmaceutical (Suzhou) Co., Ltd., priority 2018, dated 2021)
“Also recorded” adds a separate entry of the source. Where two headings read alike, the source gives them in different places.

Experiments:
[1] = Particle size distribution (laser particle size analyzer); type: physicochemical; conditions: Isopar G containing 0.2% lecithin
Description: The particle size distribution data in the present disclosure were acquired by an […] laser particle size analyzer of Microtrac. Microtrac […] is equipped with an SDC (Sample Delivery Controller). The test is carried out in wet mode, and the dispersion medium is Isopar G. The laser particle size analyzer parameters are as follows: [table] Approximately 20 mg of Form CS8, Form A and Form B of the prior art were added into 10 mL of Isopar G (containing 0.2% lecithin). The mixture was mixed thoroughly and transferred into the SDC. The measurement was started when the sample amount indicator is in appropriate position. The average particle diameter calculated by volume, the diameter at which 10% mass is comprised of smaller particles (D10), the diameter at which 50% mass is comprised of smaller particles (D50) and the diameter at which 90% mass is comprised of smaller particles (D90) were obtained in particle size distribution test.

[2] = Mechanical stability: manual grinding for 5 minutes (XRPD); type: physicochemical; conditions: ground manually for 5 minutes in a mortar
Description: Form CS8, Form A and Form B of the prior art were ground manually for 5 minutes in a mortar, XRPD patterns were collected before and after gridding. The XRPD pattern overlay of Form CS8, Form A and Form B of the prior art are depicted in FIG. 17, FIG. 18 and FIG. 19.

[3] = Kinetic solubility of Form CS8, Form A and Form B in pH 1.0-6.8 media (HPLC); type: physicochemical; conditions: for Solubility relative to Form A of the prior art / Solubility relative to Form B of the prior art: 15 minutes
Description: The HPLC method parameters for solubility test in the present disclosure are as follows:
1. Column: Waters XBridge C18 150×4.6 mm, 5 μm
2. Mobile Phase: A: 0.1% TFA in H2O • B: 0.1% TFA in Acetonitrile
4. Injection Volume: 5 μL
5. Detection wavelength: 242 nm
6. Column Temperature: 40° C.
Different parts of the human body have different acidity (pH 1.0-8.0). The pH in stomach is 1.0-2.0, and the pH in the small intestine is 4.0-7.0. The stomach and small intestine are the key organs for drug dissolution and absorption, so measuring the dynamic solubility of a drug in a medium with pH 1.0-7.0 plays an important role in predicting the in vivo bioavailability.
About 20 mg of Form CS8, Form A and Form B of the prior art were suspended into 2.0 mL of 0.1 mol/L HCl aqueous solution (pH=1.0), 2.0 mL of acetic acid buffer solution (PH=4.5) and 2.0 mL of phosphate buffer solution (pH=6.8) to make suspensions. After equilibrated for 15 minutes, 30 minutes, and 1 hour, concentrations (μg/mL) of the saturated solutions were measured by HPLC.

[4] = Adhesiveness: material sticking to the punch; type: physicochemical; conditions: 30 mg, φ8 mm round tooling, 10 KN, held 30 s
Description: Approximately 30 mg of Form CS8, Form A and Form B of the prior art were weighed and then added into the dies of φ8 mm round tooling, compressed at 10 KN and held for 30 s. The punch was weighed and amount of material sticking to the punch was calculated. The compression was repeated twice and the cumulative amount, maximum amount and average amount of material sticking to the punch during compression process were recorded.

[5] = Compressibility: tensile strength of compacts; type: physicochemical; conditions: 80 mg, φ6 mm round tooling, 10 KN; for Diameter / Hardness / Thickness: after 24 h at room temperature; for Tensile strength: T=2H/πDL
Description: 80 mg of Form CS8, Form A and Form B of the prior art were weighed and added into the dies of φ6 mm round tooling, compressed at 10 KN manually, then stored at room temperature for 24 h until complete elastic recovery. Hardness (H) was tested with an Intelligent Tablet Hardness Tester. Diameter (D) and thickness (L) were tested with a caliper. Tensile strength of the powder was calculated with the following formula: T=2H/πDL. Under a certain force, the greater the tensile strength, the better the compressibility.

[6] = Mechanical stability: tableting under different pressures (XRPD); type: physicochemical
Source text: A certain amount of Form CS8 was compressed into pellets under different pressures with suitable tableting die. Crystalline form before and after tableting were checked by XRPD. The test results are shown in Table 14, XRPD pattern overlay is depicted in FIG. 16.

[7] = Storage stability of Form CS8 under long-term and accelerated conditions (XRPD, HPLC); type: physicochemical; conditions: for Solid form after storage / Purity after storage / Chemical purity during storage: 6 months; for Purity after storage: initial purity 99.96%; for Time for which the form does not change / keeps stable on storage / Chemical purity during storage: drug substance
Description: The HPLC method parameters for purity test in the present disclosure are as follows: Approximately 30 mg of Form CS8 was stored under 25° C./60% RH and 40° C./75% RH in open or close dishes. Crystalline form and chemical impurity were checked by XRPD and HPLC, respectively. XRPD pattern overlay of Form CS8 of the present disclosure before and after being stored under 25° C./60% RH are depicted in FIG. 13. XRPD pattern overlay of Form CS8 of the present disclosure before and after being stored under 40° C./75% RH are depicted in FIG. 14.

[8] = Storage stability of Form CS8 under stress condition (XRPD); type: physicochemical; conditions: 60° C./75% RH
Description: Approximately 30 mg of Form CS8 was stored under 60° C./75% RH in open or close dishes. Crystalline form change of Form CS8 was tested by XRPD.

[9] = cited from earlier work
[10] = 0.1 mol/L HCl aqueous solution pH=1.0, equilibrated 15 min
[11] = 0.1 mol/L HCl aqueous solution pH=1.0, equilibrated 30 min
[12] = 0.1 mol/L HCl aqueous solution pH=1.0, equilibrated 1 h
[13] = acetic acid buffer solution pH=4.5, equilibrated 15 min
[14] = acetic acid buffer solution pH=4.5, equilibrated 30 min
[15] = acetic acid buffer solution pH=4.5, equilibrated 1 h
[16] = phosphate buffer solution pH=6.8, equilibrated 15 min
[17] = phosphate buffer solution pH=6.8, equilibrated 30 min
[18] = phosphate buffer solution pH=6.8, equilibrated 1 h
[19] = pH=4.5 acetic acid buffer solution
[20] = pH=6.8 phosphate buffer solution

CNC(=O)c1ccc(N2C(=S)N(c3cnc(C#N)c(C(F)(F)F)c3)C(=O)C23CCC3)cc1F [Form B of the prior art, 4-[7-(6-cyano-5-trifluoromethylpyridin-3-yl)-8-oxo-6-thioxo-5,7-diazaspiro[3.4]oct-5-yl]-2-fluoro-N-methylbenzamide]
D10 [1]: 12.1 μm
D50 [1]: 241.7 μm
D90 [1]: 1133 μm
MV (average particle diameter calculated by volume) [1]: 420.3 μm
Crystalline form/crystallinity after grinding [2]: decreases after grinding; also recorded: Crystallinity decreased
Solubility (concentration of saturated solution) [3, 10]: 1.2 µg/mL
Solubility (concentration of saturated solution) [3, 11]: 1.5 µg/mL
Solubility (concentration of saturated solution) [3, 12]: 1.3 µg/mL
Solubility (concentration of saturated solution) [3, 13]: 1.1 µg/mL
Solubility (concentration of saturated solution) [3, 14]: 1.4 µg/mL
Solubility (concentration of saturated solution) [3, 15]: 1.3 µg/mL
Solubility (concentration of saturated solution) [3, 16]: 1.2 µg/mL
Solubility (concentration of saturated solution) [3, 17]: 1.0 µg/mL
Solubility (concentration of saturated solution) [3, 18]: 0.9 µg/mL
Average amount of material sticking to the punch [4]: 0.15 mg
Maximum amount of material sticking to the punch [4]: 0.17 mg
Diameter [5]: 6.09 mm
Hardness [5]: 10.1 N
Thickness [5]: 2.13 mm
Tensile strength [5]: 0.50 MPa

CNC(=O)c1ccc(N2C(=S)N(c3cnc(C#N)c(C(F)(F)F)c3)C(=O)C23CCC3)cc1F [Form A of the prior art, 4-[7-(6-cyano-5-trifluoromethylpyridin-3-yl)-8-oxo-6-thioxo-5,7-diazaspiro[3.4]oct-5-yl]-2-fluoro-N-methylbenzamide]
D10 [1]: 4.22 μm
D50 [1]: 14.81 μm
D90 [1]: 130.4 μm
MV (average particle diameter calculated by volume) [1]: 53.51 μm
Crystalline form/crystallinity after grinding [2]: transformed into amorphous after grinding; also recorded: Almost change to amorphous
Solubility (concentration of saturated solution) [3, 10]: 7.4 µg/mL
Solubility (concentration of saturated solution) [3, 11]: 6.2 µg/mL
Solubility (concentration of saturated solution) [3, 12]: 8.0 µg/mL
Solubility (concentration of saturated solution) [3, 13]: 5.9 µg/mL
Solubility (concentration of saturated solution) [3, 14]: 5.2 µg/mL
Solubility (concentration of saturated solution) [3, 15]: 5.5 µg/mL
Solubility (concentration of saturated solution) [3, 16]: 6.1 µg/mL
Solubility (concentration of saturated solution) [3, 17]: 8.4 µg/mL
Solubility (concentration of saturated solution) [3, 18]: 4.8 µg/mL
Average amount of material sticking to the punch [4]: 0.13 mg
Maximum amount of material sticking to the punch [4]: 0.19 mg
Diameter [5]: 6.08 mm
Hardness [5]: 12.3 N
Thickness [5]: 2.10 mm
Tensile strength [5]: 0.64 MPa

CNC(=O)c1ccc(N2C(=S)N(c3cnc(C#N)c(C(F)(F)F)c3)C(=O)C23CCC3)cc1F [Form CS8, 4-[7-(6-cyano-5-trifluoromethylpyridin-3-yl)-8-oxo-6-thioxo-5,7-diazaspiro[3.4]oct-5-yl]-2-fluoro-N-methylbenzamide]
Crystalline form after tableting ([6]; pressure 3 kN): Form CS8
Crystalline form after tableting ([6]; pressure 7 kN): Form CS8
Crystalline form after tableting ([6]; pressure 14 kN): Form CS8
Solid form after storage ([7]; 25° C./60% RH (closed)): From CS8
Purity after storage ([7]; 25° C./60% RH (closed)): 99.96%
Solid form after storage ([7]; 25° C./60% RH (open)): From CS8
Purity after storage ([7]; 25° C./60% RH (open)): 99.96%
Solid form after storage ([7]; 40° C./75% RH (closed)): From CS8
Purity after storage ([7]; 40° C./75% RH (closed)): 99.95%
Solid form after storage ([7]; 40° C./75% RH (open)): From CS8
Purity after storage ([7]; 40° C./75% RH (open)): 99.95%
Time for which the form does not change / keeps stable on storage ([7]; 25° C./60% RH): at least 6 months
Chemical purity during storage ([7]; 25° C./60% RH): above 99.9%
Time for which the form does not change / keeps stable on storage ([7]; 40° C./75% RH): at least 6 months
Chemical purity during storage ([7]; 40° C./75% RH): above 99.9%
D10 [1]: 48.60 μm
D50 [1]: 100.8 μm
D90 [1]: 164.9 μm
MV (average particle diameter calculated by volume) [1]: 104.7 μm
Time for which the form does not change / keeps stable on storage [8]: at least 2 weeks
Solid form after storage ([8]; container open or close, 2 weeks): Form CS8
Crystalline form/crystallinity after grinding [2]: doesn't change after grinding
Solubility (concentration of saturated solution) [3, 10]: 23.6 µg/mL
Solubility (concentration of saturated solution) [3, 11]: 25.1 µg/mL
Solubility (concentration of saturated solution) [3, 12]: 18.7 µg/mL
Solubility (concentration of saturated solution) [3, 13]: 17.7 µg/mL
Solubility (concentration of saturated solution) [3, 14]: 10.6 µg/mL
Solubility (concentration of saturated solution) [3, 15]: 10.9 µg/mL
Solubility relative to Form A of the prior art ([3]; pH=1.0 HCl aqueous solution): 3.2 times
Solubility relative to Form B of the prior art ([3]; pH=1.0 HCl aqueous solution): 19.7 times
Solubility relative to Form A of the prior art [3, 19]: 3.0 times
Solubility relative to Form B of the prior art [3, 19]: 16.1 times
Solubility relative to Form A of the prior art [3, 20]: 3.7 times
Solubility relative to Form B of the prior art [3, 20]: 19.0 times
Solubility (concentration of saturated solution) [3, 16]: 22.8 µg/mL
Solubility (concentration of saturated solution) [3, 17]: 18.9 µg/mL
Solubility (concentration of saturated solution) [3, 18]: 20.6 µg/mL
Average amount of material sticking to the punch [4]: 0.08 mg
Maximum amount of material sticking to the punch [4]: 0.11 mg
Diameter [5]: 6.05 mm
Hardness [5]: 14.6 N
Thickness [5]: 2.19 mm
Tensile strength [5]: 0.70 MPa

CNC(=O)c1ccc(N2C(=S)N(c3cnc(C#N)c(C(F)(F)F)c3)C(=O)C23CCC3)cc1F [Form I, 4-[7-(6-cyano-5-trifluoromethylpyridin-3-yl)-8-oxo-6-thioxo-5,7-diazaspiro[3.4]oct-5-yl]-2-fluoro-N-methylbenzamide]
Crystal form transformation ([9]; high humidity conditions): transform to form B

CNC(=O)c1ccc(N2C(=S)N(c3cnc(C#N)c(C(F)(F)F)c3)C(=O)C23CCC3)cc1F [Form H, 4-[7-(6-cyano-5-trifluoromethylpyridin-3-yl)-8-oxo-6-thioxo-5,7-diazaspiro[3.4]oct-5-yl]-2-fluoro-N-methylbenzamide]
Crystal form transformation ([9]; high temperature and high humidity conditions): easily transformed into form B

CNC(=O)c1ccc(N2C(=S)N(c3cnc(C#N)c(C(F)(F)F)c3)C(=O)C23CCC3)cc1F [Form F, 4-[7-(6-cyano-5-trifluoromethylpyridin-3-yl)-8-oxo-6-thioxo-5,7-diazaspiro[3.4]oct-5-yl]-2-fluoro-N-methylbenzamide]
Crystal form transformation ([9]; ambient conditions): transform to form A
